Results as given in patent US20260217683A1, “PYRIDAZINONE HETEROCYCLIC COMPOUND MYOSIN II INHIBITOR AND USE THEREOF” (Xizang Haisco Pharmaceutical Co., Ltd., priority 2023, published 2026).
Read-outs that look alike come from different tables or passages of the source.

Experiments:
Assay type in all cases: biochemical
[1] = tested on: rabbit skeletal muscle myosin; assay: Inhibition of hydrolysis of ATP by rabbit skeletal muscle myosin
Procedure: The purpose of this test was to evaluate the ability of compounds to inhibit the hydrolysis of ATP by rabbit skeletal muscle myosin. The determination method was as follows:
• Preformed F-actin filaments (#AKF99-B, Cytoskeleton) were diluted to 1 mg/mL with Reaction buffer (25 mM Tris-HCL, pH 7.5+35 mM KCl+0.1 mM EGTA+1 mM MgCl2); • Rabbit myosin (#MYO2-A, Cytoskeleton) was diluted to 0.1 mg/mL with Resuspension buffer (15 mM Tris-HCL, PH7.5+0.2 M KCl+1 mM MgCl2); • ATP (#BSA04-001, Cytoskeleton) was diluted to 3 mM working solution with 15 mM Tris-HCL (PH=7.5);
• adding 13 μL reaction buffer+12 μL F-actin to actin control wells; • adding 10 μL reaction buffer+12 μL F-actin+3 μL myosin II to positive control wells; • adding 10 μL of compound working solution+12 μL of F-actin+3 μL of myosin II to the compound wells; • adding 5 μL of ATP working solution to all test wells to start the reaction, and simultaneously adding a sample to the Pi standard wells according to the instruction (#BK054, Cytoskeleton); • gently mixing and accurately incubating at 37° C. for 60 min; • adding 70 μL of CytoPhos Reagent (#BK054, Cytoskeleton) to each well and incubating for 10 min to stop the reaction.
• the OD value of each well was detected at 650 nm using the endpoint method. The standard curve was fitted according to Pi concentration and OD value, and the Pi concentration of each test well was obtained. Inhibition (%)=(Pi positive control well-Pi test well)/Pi positive control well*100%. The Inhibition %-[…] curve was fitted with Graphpad Prism 8 software, and IC50 was calculated.

cardiac myosin SII = target: T1, cardiac myosin SII (Bos taurus, UniProt Q9BE39); assay: Inhibition of hydrolysis of ATP by cardiac myosin SII; details: 100 μM compound
T1 construct: purchased Cytoskeleton #MYO3-A
Procedure: The purpose of this test was to evaluate the ability of compounds to inhibit the hydrolysis of ATP by cardiac myosin SII. The determination method was as follows: • 1. Solution formulation: • Preformed F-actin filaments (#AKF99-B, Cytoskeleton) were diluted to 1 mg/mL with Reaction buffer (15 mM Tris-HCL. PH7.5+10 mM KCl+0.1 mM EGTA+2 mM MgCl2); • Cardiac Muscle myosin (#MYO3-A, Cytoskeleton) was diluted to 1 mg/mL with Resuspension buffer (15 mM Tris-HCL, PH7.5+0.2M KCl+1 mM MgCl2); • ATP (#BSA04-001, Cytoskeleton) was diluted to 3 mM working solution with 15 mM Tris-HCL (PH=7.5); • 2. Formulation of working solution of compounds: the final compound concentration was 100 μM • 3. Experimental steps: • adding 10 μL of compound working solution+12 μL of Preformed F-actin filaments+3 μL of Cardiac Muscle myosin to the compound wells; • adding 10 μL of reaction buffer containing DMSO+12 μL Preformed F-actin filaments +3 μL Cardiac Muscle myosin to positive control wells; • adding 10 μL of reaction buffer containing DMSO+12 μL Preformed F-actin filaments +3 μL Resuspension buffer to negative control wells; • adding 5 μL of 3 mM ATP working solution to all test wells to start the reaction, gently mixing and incubating at 37° C. for 2 h; • after the reaction was completed, taking 6 μL of reaction liquid, adding 24 μL of reaction buffer for 5-fold dilution, then detecting the content of the product Pi with a phosphate kit (#BK054, Cytoskeleton); • adding a sample to Pi standard wells according to the instructions; • adding 70 μL of CytoPhos Reagent (#BK054, Cytoskeleton) to each well and incubating at room temperature for 10 min before detection. • 4. Detection: • the OD value of each well was detected at 650 nm. The standard curve was fitted according to Pi standard concentration and OD value, and the Pi concentration of each test well was obtained. Inhibition (%)=(positive control well−test well)/positive control well*100%.

smooth muscle myosin S1 = target: T2, smooth muscle myosin S1 (Gallus gallus, UniProt P10587); assay: Inhibition of hydrolysis of ATP by smooth muscle myosin S1 fragments
T2 construct: purchased Cytoskeleton #CS-MYS05
Procedure: The purpose of this test was to evaluate the ability of compounds to inhibit the hydrolysis of ATP by smooth muscle myosin Si fragments. The determination method was as follows: • 1. Solution formulation • F-actin polymer: Cardiac Actin powder (#CS-AD99, Cytoskeleton) was dissolved in a buffer (5 mM Pipes-KOH solution, PH=7.0, containing 100 μM ATP and 500 μM DTT) to form a 2 mg/mL solution and the solution was left at room temperature for 30 min; then 2 mM MgCl2 and 2 mM EGTA were added and the obtained system was left at room temperature for 40 min; • Smooth muscle SI fragment (#CS-MYS05, Cytoskeleton) was diluted with a pre-cooled PM12 buffer containing 1 mM DTT (12 mM Pipes-KOH solution, PH=7.0, containing 2 mM MgCl2) to form a 0.7 mg/mL solution; • ATP (#BSA04-001, Cytoskeleton) was diluted to 5 mM working solution with 15 mM Tris-HCL (PH=7.5); • 2. […] Experimental steps: • adding 10 μL of compound working solution+6 μL of F-actin polymer+4 μL of Smooth muscle Si fragment solution to the compound wells; • adding 10 μL of PM12 buffer containing DMSO+6 μL of F-actin polymer+4 μL of Smooth muscle S1 fragment solution to positive control wells; • adding 10 μL of PM12 buffer containing DMSO+6 μL of F-actin polymer+4 μL of PM12 buffer to negative control wells; • adding […] of 5 mM ATP working solution to all test wells to start the reaction, gently mixing and incubating at 37° C. for 20 min; • after the reaction was completed, taking 6 μLL of reaction liquid, adding 24 μL of PM12 buffer for 5-fold dilution, then detecting the content of the product Pi with a phosphate kit (#BK054, Cytoskeleton); • adding a standard according to the instructions, adding 70 μL of CytoPhos Reagent (#BK054, Cytoskeleton) to all wells and incubating at room temperature for 10 min before detection. • 4. Detection: • the OD value of each well was detected at 650 nm. The standard curve was fitted according to Pi standard concentration and OD value, and the Pi concentration of each test well was obtained. Inhibition (%)=(positive control well−test well)/positive control well*100%.

[2] = inhibition of hydrolysis of ATP, class symbols, read-out: Rabbit skeletal muscle myosin (IC50)
[3] = read-out: IC50 for inhibition of hydrolysis of ATP by rabbit skeletal muscle myosin

T1 sequence (Q9BE39 whole entry): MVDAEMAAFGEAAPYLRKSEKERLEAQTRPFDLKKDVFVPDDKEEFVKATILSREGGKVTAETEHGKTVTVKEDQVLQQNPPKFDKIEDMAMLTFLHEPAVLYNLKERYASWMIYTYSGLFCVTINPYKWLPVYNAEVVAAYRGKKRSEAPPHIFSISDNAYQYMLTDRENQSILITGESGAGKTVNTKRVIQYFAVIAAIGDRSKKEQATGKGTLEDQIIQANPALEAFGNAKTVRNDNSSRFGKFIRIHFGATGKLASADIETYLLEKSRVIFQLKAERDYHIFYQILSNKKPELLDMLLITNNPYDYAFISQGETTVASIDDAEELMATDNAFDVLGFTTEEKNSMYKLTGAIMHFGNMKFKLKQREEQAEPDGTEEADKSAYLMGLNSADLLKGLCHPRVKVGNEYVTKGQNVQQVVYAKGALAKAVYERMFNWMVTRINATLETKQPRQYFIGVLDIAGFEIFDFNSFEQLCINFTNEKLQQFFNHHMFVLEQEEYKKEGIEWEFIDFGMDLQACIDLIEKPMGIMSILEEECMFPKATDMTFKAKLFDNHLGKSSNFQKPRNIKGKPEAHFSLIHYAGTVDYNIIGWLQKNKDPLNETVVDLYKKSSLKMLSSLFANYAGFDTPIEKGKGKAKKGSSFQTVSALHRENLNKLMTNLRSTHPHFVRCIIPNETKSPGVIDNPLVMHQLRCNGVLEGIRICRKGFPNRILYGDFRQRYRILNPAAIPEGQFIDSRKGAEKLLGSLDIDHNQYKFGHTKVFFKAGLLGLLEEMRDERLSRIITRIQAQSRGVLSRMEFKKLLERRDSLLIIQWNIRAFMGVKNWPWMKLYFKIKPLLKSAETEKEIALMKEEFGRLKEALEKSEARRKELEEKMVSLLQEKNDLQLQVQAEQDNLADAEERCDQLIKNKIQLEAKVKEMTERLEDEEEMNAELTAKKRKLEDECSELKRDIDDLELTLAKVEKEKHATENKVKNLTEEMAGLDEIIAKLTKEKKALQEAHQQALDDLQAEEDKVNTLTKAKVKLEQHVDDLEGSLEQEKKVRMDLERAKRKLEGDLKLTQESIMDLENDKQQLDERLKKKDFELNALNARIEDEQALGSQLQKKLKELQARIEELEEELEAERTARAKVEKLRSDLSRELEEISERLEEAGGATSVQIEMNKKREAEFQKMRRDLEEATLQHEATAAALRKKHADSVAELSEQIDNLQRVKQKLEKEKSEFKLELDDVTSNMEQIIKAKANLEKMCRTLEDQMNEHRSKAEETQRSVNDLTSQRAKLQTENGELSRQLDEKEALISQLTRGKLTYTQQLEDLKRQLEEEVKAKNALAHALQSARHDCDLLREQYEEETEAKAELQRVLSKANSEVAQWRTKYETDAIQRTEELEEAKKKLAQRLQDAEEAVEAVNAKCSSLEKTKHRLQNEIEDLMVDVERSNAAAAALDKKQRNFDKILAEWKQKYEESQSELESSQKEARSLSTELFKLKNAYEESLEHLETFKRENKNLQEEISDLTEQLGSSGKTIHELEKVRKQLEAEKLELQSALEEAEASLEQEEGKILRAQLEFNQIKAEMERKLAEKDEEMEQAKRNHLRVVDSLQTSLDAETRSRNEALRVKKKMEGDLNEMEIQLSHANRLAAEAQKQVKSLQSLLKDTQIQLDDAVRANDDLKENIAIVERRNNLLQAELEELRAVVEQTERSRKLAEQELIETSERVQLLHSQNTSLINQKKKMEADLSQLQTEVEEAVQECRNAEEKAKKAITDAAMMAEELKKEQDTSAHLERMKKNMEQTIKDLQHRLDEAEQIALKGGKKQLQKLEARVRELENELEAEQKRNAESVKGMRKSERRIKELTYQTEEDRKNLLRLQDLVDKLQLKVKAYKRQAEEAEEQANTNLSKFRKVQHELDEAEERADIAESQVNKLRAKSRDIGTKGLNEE
T1 sequence (P85100 whole entry partner): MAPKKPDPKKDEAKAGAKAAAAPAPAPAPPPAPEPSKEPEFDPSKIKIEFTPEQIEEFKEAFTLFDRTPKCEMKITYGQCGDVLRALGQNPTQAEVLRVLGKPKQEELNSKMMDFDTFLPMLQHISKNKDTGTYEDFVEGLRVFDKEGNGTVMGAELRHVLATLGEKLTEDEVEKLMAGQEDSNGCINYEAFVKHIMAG
T1 sequence (Q3SZE5 whole entry partner): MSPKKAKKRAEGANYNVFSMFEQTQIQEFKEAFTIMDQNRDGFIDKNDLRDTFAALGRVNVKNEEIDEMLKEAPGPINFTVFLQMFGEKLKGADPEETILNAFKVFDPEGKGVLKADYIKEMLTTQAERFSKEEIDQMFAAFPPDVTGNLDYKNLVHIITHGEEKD
T2 sequence (P10587 84-789 limits assumed): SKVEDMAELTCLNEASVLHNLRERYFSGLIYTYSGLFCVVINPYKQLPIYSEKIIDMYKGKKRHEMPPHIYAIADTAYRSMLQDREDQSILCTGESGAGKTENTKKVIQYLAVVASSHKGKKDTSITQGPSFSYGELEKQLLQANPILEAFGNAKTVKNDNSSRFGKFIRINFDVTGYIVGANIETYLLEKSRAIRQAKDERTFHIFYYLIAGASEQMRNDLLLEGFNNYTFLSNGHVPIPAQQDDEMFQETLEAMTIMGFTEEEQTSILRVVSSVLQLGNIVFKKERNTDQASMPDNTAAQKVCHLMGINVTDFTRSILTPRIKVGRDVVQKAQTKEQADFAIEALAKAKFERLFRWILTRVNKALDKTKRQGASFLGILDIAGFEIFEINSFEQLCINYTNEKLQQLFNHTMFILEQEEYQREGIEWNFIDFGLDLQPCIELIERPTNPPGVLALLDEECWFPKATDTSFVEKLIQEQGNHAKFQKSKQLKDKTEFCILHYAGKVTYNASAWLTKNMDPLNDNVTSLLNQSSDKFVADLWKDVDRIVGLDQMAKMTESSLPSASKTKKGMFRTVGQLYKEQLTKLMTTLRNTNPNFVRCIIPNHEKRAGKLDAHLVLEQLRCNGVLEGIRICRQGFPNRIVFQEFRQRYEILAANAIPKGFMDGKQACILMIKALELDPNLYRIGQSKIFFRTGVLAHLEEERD
T2 sequence (P02607 whole entry partner, the tested form may be a part): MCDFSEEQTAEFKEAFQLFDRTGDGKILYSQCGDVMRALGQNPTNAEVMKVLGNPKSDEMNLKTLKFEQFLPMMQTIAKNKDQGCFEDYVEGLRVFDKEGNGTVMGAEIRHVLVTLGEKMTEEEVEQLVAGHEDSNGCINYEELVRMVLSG

Compound | IC50 [1, 2] | inhibition at 100 µM (cardiac myosin SII) | inhibition at 100 µM (smooth muscle myosin S1; 100 μM compound) | IC50 [1, 3] | inhibition at 50 µM (smooth muscle myosin S1) | Cardiac myosin SII (Inhibition @ 100 μM) (cardiac myosin SII; 100 µM) | Smooth muscle myosin S1 (Inhibition @ 100 μM) (smooth muscle myosin S1; 100 μM compound, 100 µM)
O=c1ccc(-c2cnc(OCC3CC3)nc2)nn1Cc1ccc2c(c1)CCC2 [Compound 80] | < 2500 nM | -17.8% | – | 500 nM | 9.3% | – | –
O=c1ccc(-c2cnc(OC3CC3)nc2)nn1Cc1ccc2c(c1)CCC2 [Compound 84] | < 2500 nM | -3.8% | – | – | 20.2% | – | –
O=c1ccc(-c2cnc(OC3CCOCC3)nc2)nn1Cc1ccc2c(c1)CC2 [Compound 95] | 2500 to 20000 nM | 2% | -2% | – | – | – | –
CN1CC(Oc2ncc(-c3ccc(=O)n(Cc4ccc5c(c4)CC5)n3)cn2)C1 [Compound 104] | < 2500 nM | 8.9% | 20.7% | 800 nM | – | – | –
N#CC1(COc2ncc(-c3ccc(=O)n(Cc4ccc5c(c4)CCC5)n3)cn2)CC1 [Compound 105] | < 2500 nM | 16% | 16% | 900 nM | – | – | –
O=c1ccc(-c2cnc(C3CCC3)nc2)nn1Cc1ccc2c(c1)CC2 [Compound 109] | < 2500 nM | 9.7% | -3.5% | 100 nM | – | – | –
O=c1cc2c(nn1Cc1ccc3c(c1)CC3)-c1cnc(Oc3cncc(F)c3)nc1CC2 [Compound 112] | < 2500 nM | 2% | -9% | – | – | – | –
O=c1ccc(-c2cnc(OCC3(F)CCC3)nc2)nn1Cc1ccc2c(c1)CCC2 [Compound 113] | < 2500 nM | 0% | -13% | – | – | – | –
O=c1ccc(-c2cnc(Oc3cncc(F)c3)nc2)nn1Cc1ccc2c(c1)CCC2 [Compound 115] | < 2500 nM | 3% | 3% | – | – | – | –
O=c1ccc(-c2cnc(O[C@H]3CCOC3)nc2)nn1Cc1ccc2c(c1)CCC2 [Compound 120] | < 2500 nM | 14% | -3% | 700 nM | – | – | –
O=c1ccc(-c2cnc(O[C@@H]3CCOC3)nc2)nn1Cc1ccc2c(c1)CCC2 [Compound 126] | < 2500 nM | 7% | 7% | 500 nM | – | – | –
O=c1ccc(-c2cnc(C3CC(F)(F)C3)nc2)nn1Cc1ccc2c(c1)CCC2 [Compound 127] | < 2500 nM | 8% | -6% | – | – | – | –
O=c1ccc(-c2cnc(Oc3nccs3)nc2)nn1Cc1ccc2c(c1)CCC2 [Compound 130] | 2500 to 20000 nM | 3% | 2% | – | – | – | –

Now from value to compound:

IC50 [1, 2] | inhibition at 100 µM (cardiac myosin SII) | inhibition at 100 µM (smooth muscle myosin S1; 100 μM compound) | IC50 [1, 3] | inhibition at 50 µM (smooth muscle myosin S1) | Cardiac myosin SII (Inhibition @ 100 μM) (cardiac myosin SII; 100 µM) | Smooth muscle myosin S1 (Inhibition @ 100 μM) (smooth muscle myosin S1; 100 μM compound, 100 µM) | Compound
< 2500 nM | 2% | 3% | – | – | – | – | O=c1ccc(-c2cnc(OCC(F)F)nc2)nn1Cc1ccc2c(c1)CCC2 [Compound 67]
< 2500 nM | 10.2% | -3% | 550 nM | – | – | – | O=c1ccc(-c2cnc(OCC(F)(F)F)nc2)nn1Cc1cc(F)c2c(c1)CCC2 [Compound 73]
< 2500 nM | 15.8% | 5.3% | 290 nM | – | – | – | O=c1ccc(-c2cnc(OCC(F)F)nc2)nn1Cc1cc(F)c2c(c1)CCC2 [Compound 74]
< 2500 nM | -5.6% | – | – | 10.9% | – | – | O=c1ccc(-c2cnc(OCC3CC3(F)F)nc2)nn1Cc1ccc2c(c1)CCC2 (centres unmarked) [Compound 81]
2500 to 20000 nM | 13.7% | 17.6% | – | – | – | – | O=c1ccc(-c2cnc(OCC(F)(F)F)nc2)nn1Cc1ccc2c(c1)CCCC2(F)F [Compound 89]
< 2500 nM | -16% | -14% | 700 nM | – | – | – | O=c1ccc(-c2cnc(OCC(F)(F)F)nc2)nn1Cc1ccc2c(c1)C(F)(F)CC2 [Compound 93]
< 2500 nM | -5% | -2% | 400 nM | – | – | – | O=c1cc2c(nn1Cc1ccc3c(c1)CC3)-c1cnc(OCC(F)(F)F)nc1CC2 [Compound 102]
< 2500 nM | 4.5% | -0.9% | 200 nM | – | – | – | O=c1ccc(-c2cnc(OCC3(F)CC3)nc2)nn1Cc1ccc2c(c1)CCC2 [Compound 108]
< 2500 nM | 1% | -6% | 800 nM | – | – | – | CC(F)(F)COc1ncc(-c2ccc(=O)n(Cc3ccc4c(c3)CCC4)n2)cn1 [Compound 110]
< 2500 nM | -4% | 8% | – | – | – | – | O=c1ccc(-c2cnc(Oc3ccnc(C(F)(F)F)c3)nc2)nn1Cc1ccc2c(c1)CCC2 [Compound 133]
< 2500 nM | 1% | 8% | – | – | – | – | O=c1ccc(-c2cnc(Oc3cncc(C(F)(F)F)c3)nc2)nn1Cc1ccc2c(c1)CCC2 [Compound 134]
< 2500 nM | -7% | -4% | – | – | – | – | O=C1CCc2cc(F)c(Cn3nc(-c4cnc(OCC(F)(F)F)nc4)ccc3=O)cc21 [Compound 136]
< 2500 nM | – | – | 800 nM | – | −6% | 2% | O=c1ccc(-c2cnc(OCC(F)(F)F)nc2)nn1Cc1ccc2c(c1)C1CC1C2 (centres unmarked) [Compound 140]
2500 to 20000 nM | -8% | 2% | – | – | – | – | O=C1CCc2ccc(Cn3nc(-c4cnc(Oc5cncc(C(F)(F)F)c5)nc4)ccc3=O)cc21 [Compound 142]
< 2500 nM | 1% | 5% | – | – | – | – | O=C1CCc2ccc(Cn3nc(-c4cnc(Oc5csc(C(F)(F)F)c5)nc4)ccc3=O)cc21 [Compound 155]
< 2500 nM | 7% | -11% | 900 nM | – | – | – | O=c1ccc(-c2cnc(OCC(F)(F)F)nc2)nn1Cc1ccc2c(c1)CC1CC21 (centres unmarked) [Compound 156]
